Patent publication US20110173718A1, “HERBICIDE TOLERANT PLANTS” (SYNGENTA CROP PROTECTION, INC., priority 2008, published 2011)
“And” between values parts separate entries of the source, which are not always exact repeats. Identical values can stand only once.

Key:
[1] = system: tobacco plants expressing Wheat HPPD; assay: Glasshouse spray test, wheat HPPD transgenic tobacco; format: in vivo; conditions: 100 g, individual T0 lines
Excerpt: Transgenic lines of tobacco, soyabean and corn etc. can be engineered to express various heterologous HPPDs derived from, for example Avena (SEQ ID #26), Wheat (SEQ ID #27), Pseudomonas fluorescens (SEQ ID # 25) and Shewanella colwelliana (SEQ ID #28) as, for example, described in WO 02/46387.
Single copy events amongst the T1 plant lines are identified by their 3:1 segregation ratio (wrt kanamycin and or herbicide) and by quantitative RT-PCR. Seed from the thus selected T1 tobacco (var Samsun) lines are sown in 3 inch diameter pots containing 50% peat, 50% John Innes soil no 3. After growth to the 3 leaf stage, plants are sprayed, as described above, in order to test for herbicide tolerance relative to like-treated non-transgenic tobacco plants. […]
Exactly as described in example 5 of WO 02/46387 the wheat HPPD gene sequence (Embl DD064495) is cloned behind an Arabidopsis Rubisco small subunit (SSU) promoter and in front of a nos gene terminator to produce an SSU Wheat HPPD nos expression cassette' which is cloned into a binary vector and transformed into tobacco to produce a population of 30-50 transgenic events.

[2] = system: weeds; assay: Glasshouse weed control by HST/HPPD (mesotrione) mixtures, pre-emergence; format: in vivo; conditions: for colby: Colby synergy score; for % Damage at 14 DAA, 1 g ai ha^−1 mesotrione / % Damage at 14 DAA, no-mesotrione: N = 3
Method: Weed seeds are planted out in trays containing suitable soil (for example 50% peat, 50% John Innes soil no 3) and grown in the glass house conditions under 24-27° C. day; 18-21° C. night and approximately a 14 h (or longer in UK summer) photoperiod. Humidity is ˜65% and light levels up to 2000 μmol/m^2 at bench level. Trays are sprayed with test chemicals dissolved in water with 0.2-0.25% X-77 surfactant and sprayed from a boom on a suitable track sprayer moving at about 2 mph in a suitable track sprayer (for example a DeVries spray chamber with the nozzle about 2 inches from the plant tops). Spray volume is suitably 500-1000 l/ha. Sprays are carried out both pre-emergence and over small plants at about 7-12 d post-emergence
Plants are assessed 14 DAT and herbicidal damage is scored on a scale from 0 to 100%. The HST inhibitor compound 2.30 (designated compound A in table 16 and 17), haloxydine (compound 1.1) and compound 2.13 (designated compound AE in tables 16 and 17) are sprayed at rates between 0 and 500 g/ha.

[3] = ALOMY, 16 g/ha + mesotrione 1 g ai/ha
[4] = ALOMY, 31 g/ha + mesotrione 1 g ai/ha
[5] = ALOMY, 63 g/ha + mesotrione 1 g ai/ha
[6] = ALOMY, 125 g/ha + mesotrione 1 g ai/ha
[7] = ALOMY, 250 g/ha + mesotrione 1 g ai/ha
[8] = ALOMY, 500 g/ha + mesotrione 1 g ai/ha
[9] = AMARE, 16 g/ha + mesotrione 1 g ai/ha
[10] = AMARE, 31 g/ha + mesotrione 1 g ai/ha
[11] = AMARE, 63 g/ha + mesotrione 1 g ai/ha
[12] = AMARE, 125 g/ha + mesotrione 1 g ai/ha
[13] = AMARE, 250 g/ha + mesotrione 1 g ai/ha
[14] = AMARE, 500 g/ha + mesotrione 1 g ai/ha
[15] = ECHCG, 16 g/ha + mesotrione 1 g ai/ha
[16] = ECHCG, 31 g/ha + mesotrione 1 g ai/ha
[17] = ECHCG, 63 g/ha + mesotrione 1 g ai/ha
[18] = ECHCG, 125 g/ha + mesotrione 1 g ai/ha
[19] = ECHCG, 250 g/ha + mesotrione 1 g ai/ha
[20] = ECHCG, 500 g/ha + mesotrione 1 g ai/ha
[21] = IPOHE, 16 g/ha + mesotrione 1 g ai/ha
[22] = IPOHE, 31 g/ha + mesotrione 1 g ai/ha
[23] = IPOHE, 63 g/ha + mesotrione 1 g ai/ha
[24] = IPOHE, 125 g/ha + mesotrione 1 g ai/ha
[25] = IPOHE, 250 g/ha + mesotrione 1 g ai/ha
[26] = IPOHE, 500 g/ha + mesotrione 1 g ai/ha
[27] = SETFA, 16 g/ha + mesotrione 1 g ai/ha
[28] = SETFA, 31 g/ha + mesotrione 1 g ai/ha
[29] = SETFA, 63 g/ha + mesotrione 1 g ai/ha
[30] = SETFA, 125 g/ha + mesotrione 1 g ai/ha
[31] = SETFA, 250 g/ha + mesotrione 1 g ai/ha
[32] = SETFA, 500 g/ha + mesotrione 1 g ai/ha
[33] = SOLNI, 16 g/ha + mesotrione 1 g ai/ha
[34] = SOLNI, 31 g/ha + mesotrione 1 g ai/ha
[35] = SOLNI, 63 g/ha + mesotrione 1 g ai/ha
[36] = SOLNI, 125 g/ha + mesotrione 1 g ai/ha
[37] = SOLNI, 250 g/ha + mesotrione 1 g ai/ha
[38] = SOLNI, 500 g/ha + mesotrione 1 g ai/ha

Compound: CC(C)C(=O)Oc1c(-c2c(F)ccc(Br)c2Cl)c(=O)n(CC(F)F)c2nccnc12 [Compound 2.30]
- blch (% bleaching at the meristem relative to control plants) ([1]; 7 DAT): 35% (5×) and 40% (5×) and 50% (2×) and 60% (2×) and 30% (6×) and 70% (2×) and 10% (2×)
- ht (% height reduction relative to control plants) ([1]; 7 DAT): 50% (5×) and 60% (3×) and 90% (3×) and 70% (7×) and 40% (2×) and 30% (2×) and 20% (2×)
- blch (% bleaching at the meristem relative to control plants) ([1]; 21 DAT): 0% (15×) and 90% (2×) and 70% (5×) and 50% (2×) and 65% and 45%
- ht (% height reduction relative to control plants) ([1]; 21 DAT): 45% (2×) and 85% (3×) and 80% (2×) and 30% and 55% (3×) and 50% (5×) and 40% (3×) and 60% (2×) and 75% and 70% (2×) and 95% and 90%
- colby [2, 3]: 0%
- % Damage at 14 DAA, 1 g ai ha^−1 mesotrione [2, 3]: 0%
- % Damage at 14 DAA, no-mesotrione ([2]; ALOMY, 16 g/ha): 0%
- colby [2, 4]: 0%
- % Damage at 14 DAA, 1 g ai ha^−1 mesotrione [2, 4]: 0%
- % Damage at 14 DAA, no-mesotrione ([2]; ALOMY, 31 g/ha): 0%
- colby [2, 5]: 0%
- % Damage at 14 DAA, 1 g ai ha^−1 mesotrione [2, 5]: 0%
- % Damage at 14 DAA, no-mesotrione ([2]; ALOMY, 63 g/ha): 0%
- colby [2, 6]: 0%
- % Damage at 14 DAA, 1 g ai ha^−1 mesotrione [2, 6]: 0%
- % Damage at 14 DAA, no-mesotrione ([2]; ALOMY, 125 g/ha): 0%
- colby [2, 7]: −2%
- % Damage at 14 DAA, 1 g ai ha^−1 mesotrione [2, 7]: 0%
- % Damage at 14 DAA, no-mesotrione ([2]; ALOMY, 250 g/ha): 2%
- colby [2, 8]: 10%
- % Damage at 14 DAA, 1 g ai ha^−1 mesotrione [2, 8]: 20%
- % Damage at 14 DAA, no-mesotrione ([2]; ALOMY, 500 g/ha): 10%
- colby [2, 9]: −2%
- % Damage at 14 DAA, 1 g ai ha^−1 mesotrione [2, 9]: 0%
- % Damage at 14 DAA, no-mesotrione ([2]; AMARE, 16 g/ha): 0%
- colby [2, 10]: −2%
- % Damage at 14 DAA, 1 g ai ha^−1 mesotrione [2, 10]: 0%
- % Damage at 14 DAA, no-mesotrione ([2]; AMARE, 31 g/ha): 0%
- colby [2, 11]: 8%
- % Damage at 14 DAA, 1 g ai ha^−1 mesotrione [2, 11]: 10%
- % Damage at 14 DAA, no-mesotrione ([2]; AMARE, 63 g/ha): 0%
- colby [2, 12]: 29%
- % Damage at 14 DAA, 1 g ai ha^−1 mesotrione [2, 12]: 40%
- % Damage at 14 DAA, no-mesotrione ([2]; AMARE, 125 g/ha): 10%
- colby [2, 13]: 9%
- % Damage at 14 DAA, 1 g ai ha^−1 mesotrione [2, 13]: 47%
- % Damage at 14 DAA, no-mesotrione ([2]; AMARE, 250 g/ha): 37%
- colby [2, 14]: 16%
- % Damage at 14 DAA, 1 g ai ha^−1 mesotrione [2, 14]: 90%
- % Damage at 14 DAA, no-mesotrione ([2]; AMARE, 500 g/ha): 73%
- colby [2, 15]: 0%
- % Damage at 14 DAA, 1 g ai ha^−1 mesotrione [2, 15]: 0%
- % Damage at 14 DAA, no-mesotrione ([2]; ECHCG, 16 g/ha): 0%
- colby [2, 16]: 0%
- % Damage at 14 DAA, 1 g ai ha^−1 mesotrione [2, 16]: 0%
- % Damage at 14 DAA, no-mesotrione ([2]; ECHCG, 31 g/ha): 0%
- colby [2, 17]: 0%
- % Damage at 14 DAA, 1 g ai ha^−1 mesotrione [2, 17]: 0%
- % Damage at 14 DAA, no-mesotrione ([2]; ECHCG, 63 g/ha): 0%
- colby [2, 18]: −2%
- % Damage at 14 DAA, 1 g ai ha^−1 mesotrione [2, 18]: 0%
- % Damage at 14 DAA, no-mesotrione ([2]; ECHCG, 125 g/ha): 2%
- colby [2, 19]: 0%
- % Damage at 14 DAA, 1 g ai ha^−1 mesotrione [2, 19]: 5%
- % Damage at 14 DAA, no-mesotrione ([2]; ECHCG, 250 g/ha): 5%
- colby [2, 20]: 8%
- % Damage at 14 DAA, 1 g ai ha^−1 mesotrione [2, 20]: 27%
- % Damage at 14 DAA, no-mesotrione ([2]; ECHCG, 500 g/ha): 18%
- colby [2, 21]: 0%
- % Damage at 14 DAA, 1 g ai ha^−1 mesotrione [2, 21]: 0%
- % Damage at 14 DAA, no-mesotrione ([2]; IPOHE, 16 g/ha): 0%
- colby [2, 22]: 0%
- % Damage at 14 DAA, 1 g ai ha^−1 mesotrione [2, 22]: 0%
- % Damage at 14 DAA, no-mesotrione ([2]; IPOHE, 31 g/ha): 0%
- colby [2, 23]: 0%
- % Damage at 14 DAA, 1 g ai ha^−1 mesotrione [2, 23]: 0%
- % Damage at 14 DAA, no-mesotrione ([2]; IPOHE, 63 g/ha): 0%
- colby [2, 24]: 0%
- % Damage at 14 DAA, 1 g ai ha^−1 mesotrione [2, 24]: 0%
- % Damage at 14 DAA, no-mesotrione ([2]; IPOHE, 125 g/ha): 0%
- colby [2, 25]: −2%
- % Damage at 14 DAA, 1 g ai ha^−1 mesotrione [2, 25]: 0%
- % Damage at 14 DAA, no-mesotrione ([2]; IPOHE, 250 g/ha): 2%
- colby [2, 26]: 13%
- % Damage at 14 DAA, 1 g ai ha^−1 mesotrione [2, 26]: 17%
- % Damage at 14 DAA, no-mesotrione ([2]; IPOHE, 500 g/ha): 3%
- colby [2, 27]: 0%
- % Damage at 14 DAA, 1 g ai ha^−1 mesotrione [2, 27]: 0%
- % Damage at 14 DAA, no-mesotrione ([2]; SETFA, 16 g/ha): 0%
- colby [2, 28]: 0%
- % Damage at 14 DAA, 1 g ai ha^−1 mesotrione [2, 28]: 0%
- % Damage at 14 DAA, no-mesotrione ([2]; SETFA, 31 g/ha): 0%
- colby [2, 29]: 0%
- % Damage at 14 DAA, 1 g ai ha^−1 mesotrione [2, 29]: 0%
- % Damage at 14 DAA, no-mesotrione ([2]; SETFA, 63 g/ha): 0%
- colby [2, 30]: −2%
- % Damage at 14 DAA, 1 g ai ha^−1 mesotrione [2, 30]: 0%
- % Damage at 14 DAA, no-mesotrione ([2]; SETFA, 125 g/ha): 2%
- colby [2, 31]: 3%
- % Damage at 14 DAA, 1 g ai ha^−1 mesotrione [2, 31]: 7%
- % Damage at 14 DAA, no-mesotrione ([2]; SETFA, 250 g/ha): 3%
- colby [2, 32]: 10%
- % Damage at 14 DAA, 1 g ai ha^−1 mesotrione [2, 32]: 32%
- % Damage at 14 DAA, no-mesotrione ([2]; SETFA, 500 g/ha): 22%
- colby [2, 33]: −17%
- % Damage at 14 DAA, 1 g ai ha^−1 mesotrione [2, 33]: 0%
- % Damage at 14 DAA, no-mesotrione ([2]; SOLNI, 16 g/ha): 0%
- colby [2, 34]: −10%
- % Damage at 14 DAA, 1 g ai ha^−1 mesotrione [2, 34]: 7%
- % Damage at 14 DAA, no-mesotrione ([2]; SOLNI, 31 g/ha): 0%
- colby [2, 35]: −13%
- % Damage at 14 DAA, 1 g ai ha^−1 mesotrione [2, 35]: 3%
- % Damage at 14 DAA, no-mesotrione ([2]; SOLNI, 63 g/ha): 0%
- colby [2, 36]: −11%
- % Damage at 14 DAA, 1 g ai ha^−1 mesotrione [2, 36]: 8%
- % Damage at 14 DAA, no-mesotrione ([2]; SOLNI, 125 g/ha): 2%
- colby [2, 37]: 11%
- % Damage at 14 DAA, 1 g ai ha^−1 mesotrione [2, 37]: 30%
- % Damage at 14 DAA, no-mesotrione ([2]; SOLNI, 250 g/ha): 3%
- colby [2, 38]: 21%
- % Damage at 14 DAA, 1 g ai ha^−1 mesotrione [2, 38]: 75%
- % Damage at 14 DAA, no-mesotrione ([2]; SOLNI, 500 g/ha): 45%
